Assay results reported in publication PMC9856672, “SGC-CAMKK2-1: A Chemical Probe for CAMKK2” (Cells, 2023).

Assays:
EPHA8 = molecular target: T1, EPHA8 (Homo sapiens, UniProt P29322); test: KINOMEscan 1 μM, EPHA8; assay type: binding; conditions: 1000 nM; Entrez EPHA8; read-out: Percent Control
T1 construct: purchased Eurofins DiscoverX KINOMEscan
From the text: (§1) Supplement cells-12-00287-s001.zip/File S2. KinomeScan data for the CAMKK2 probe and negative control.xlsx, sheet "SGC-CAMKK2-1" | column: Percent Control

GSK3B = molecular target: T2, GSK3B (Homo sapiens, UniProt P49841); test: KINOMEscan 1 μM, GSK3B; assay type: binding; conditions: 1000 nM; Entrez GSK3B; read-out: Percent Control
T2 construct: purchased Eurofins DiscoverX KINOMEscan
From the text: as §1

EPHA7 = molecular target: T3, EPHA7 (Homo sapiens, UniProt Q15375); test: KINOMEscan 1 μM, EPHA7; assay type: binding; conditions: 1000 nM; Entrez EPHA7; read-out: Percent Control
T3 construct: purchased Eurofins DiscoverX KINOMEscan
T3 sequence (Q15375 28-998): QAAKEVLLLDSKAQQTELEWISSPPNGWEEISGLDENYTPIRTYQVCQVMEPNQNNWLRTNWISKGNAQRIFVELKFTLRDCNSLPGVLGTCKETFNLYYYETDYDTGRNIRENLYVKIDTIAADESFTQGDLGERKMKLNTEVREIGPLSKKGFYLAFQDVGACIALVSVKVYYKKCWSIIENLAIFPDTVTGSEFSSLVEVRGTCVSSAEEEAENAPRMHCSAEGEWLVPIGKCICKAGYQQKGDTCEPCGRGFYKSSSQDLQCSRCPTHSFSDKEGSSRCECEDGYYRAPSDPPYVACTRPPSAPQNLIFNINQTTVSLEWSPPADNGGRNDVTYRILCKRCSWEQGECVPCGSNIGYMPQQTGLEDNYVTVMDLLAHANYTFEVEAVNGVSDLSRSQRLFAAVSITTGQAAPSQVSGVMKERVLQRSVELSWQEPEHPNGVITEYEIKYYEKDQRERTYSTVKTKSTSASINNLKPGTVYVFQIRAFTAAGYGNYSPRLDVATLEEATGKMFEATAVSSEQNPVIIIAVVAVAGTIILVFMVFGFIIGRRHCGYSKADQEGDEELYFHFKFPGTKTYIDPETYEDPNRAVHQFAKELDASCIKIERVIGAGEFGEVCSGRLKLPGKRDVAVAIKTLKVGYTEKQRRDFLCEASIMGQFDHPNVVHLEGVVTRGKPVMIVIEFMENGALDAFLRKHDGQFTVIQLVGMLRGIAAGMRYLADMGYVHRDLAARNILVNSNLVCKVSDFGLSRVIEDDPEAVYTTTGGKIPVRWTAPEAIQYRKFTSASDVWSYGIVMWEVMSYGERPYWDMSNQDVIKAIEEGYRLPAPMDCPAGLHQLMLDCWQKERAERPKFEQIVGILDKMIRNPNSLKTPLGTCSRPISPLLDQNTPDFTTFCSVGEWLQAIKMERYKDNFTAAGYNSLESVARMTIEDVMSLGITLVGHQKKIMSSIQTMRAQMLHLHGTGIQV
From the text: as §1

AKT3 [1] = molecular target: T4, AKT3 (Homo sapiens, UniProt Q9Y243); test: KINOMEscan 1 μM, AKT3; assay type: binding; conditions: 1000 nM; Entrez AKT3; read-out: Percent Control
T4 construct: purchased Eurofins DiscoverX KINOMEscan
T4 sequence (Q9Y243 whole entry): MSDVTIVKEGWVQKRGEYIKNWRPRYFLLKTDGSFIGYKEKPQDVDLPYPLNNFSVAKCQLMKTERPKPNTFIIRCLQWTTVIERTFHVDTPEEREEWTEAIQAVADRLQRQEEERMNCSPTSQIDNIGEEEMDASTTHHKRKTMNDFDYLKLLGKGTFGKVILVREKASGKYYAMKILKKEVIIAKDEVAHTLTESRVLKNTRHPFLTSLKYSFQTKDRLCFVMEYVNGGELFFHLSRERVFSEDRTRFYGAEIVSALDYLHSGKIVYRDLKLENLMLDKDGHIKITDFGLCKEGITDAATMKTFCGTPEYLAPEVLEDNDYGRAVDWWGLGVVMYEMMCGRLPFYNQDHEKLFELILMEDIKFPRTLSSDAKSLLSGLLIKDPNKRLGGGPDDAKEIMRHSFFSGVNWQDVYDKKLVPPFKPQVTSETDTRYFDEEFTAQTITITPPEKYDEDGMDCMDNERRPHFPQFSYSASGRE
From the text: as §1

[2] = molecular target: T5, RPS6KA5(Kin.Dom.1-N-terminal) (Homo sapiens, UniProt O75582); test: KINOMEscan 1 μM, RPS6KA5(Kin.Dom.1-N-terminal); assay type: binding; conditions: 1000 nM; Entrez RPS6KA5; read-out: Percent Control
T5 construct: RPS6KA5(Kin.Dom.1-N-terminal); purchased Eurofins DiscoverX KINOMEscan
T5 sequence (O75582 1-387 limits assumed): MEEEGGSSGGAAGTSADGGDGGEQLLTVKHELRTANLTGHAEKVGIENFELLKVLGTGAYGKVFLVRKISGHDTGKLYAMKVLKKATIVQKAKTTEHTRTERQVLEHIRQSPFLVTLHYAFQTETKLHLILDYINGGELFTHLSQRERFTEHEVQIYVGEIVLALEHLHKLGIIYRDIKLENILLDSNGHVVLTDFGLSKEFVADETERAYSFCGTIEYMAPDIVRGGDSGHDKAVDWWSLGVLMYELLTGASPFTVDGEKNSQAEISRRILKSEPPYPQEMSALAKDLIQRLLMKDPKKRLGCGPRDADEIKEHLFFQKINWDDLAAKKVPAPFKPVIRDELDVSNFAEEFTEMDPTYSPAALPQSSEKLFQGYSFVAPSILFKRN
From the text: as §1

AURKB = molecular target: T6, AURKB (Homo sapiens, UniProt Q96GD4); test: KINOMEscan 1 μM, AURKB; assay type: binding; conditions: 1000 nM; Entrez AURKB; read-out: Percent Control
T6 construct: purchased Eurofins DiscoverX KINOMEscan
From the text: as §1

MAPKAPK5 = molecular target: T7, MAPKAPK5 (Homo sapiens, UniProt Q8IW41); test: KINOMEscan 1 μM, MAPKAPK5; assay type: binding; conditions: 1000 nM; Entrez MAPKAPK5; read-out: Percent Control
T7 construct: purchased Eurofins DiscoverX KINOMEscan
From the text: as §1

TTK = molecular target: T8, TTK (Homo sapiens, UniProt P33981); test: DiscoverX KINOMEscan binding assay at 1 μM, TTK; conditions: Compound Concentration 1000 nM, read-out: Percent Control
T8 construct: purchased Eurofins DiscoverX KINOMEscan
From the text: as §1

BRAF = molecular target: T9, BRAF (Homo sapiens, UniProt P15056); test: KINOMEscan 1 μM, BRAF; assay type: binding; conditions: 1000 nM; Entrez BRAF; read-out: Percent Control
T9 construct: purchased Eurofins DiscoverX KINOMEscan
From the text: as §1

PIK3CA(C420R) = molecular target: T10, PIK3CA(C420R) (Homo sapiens, UniProt P42336, C420R); test: DiscoverX KINOMEscan binding assay at 1 μM, PIK3CA(C420R); conditions: Compound Concentration 1000 nM, read-out: Percent Control
T10 construct: purchased Eurofins DiscoverX KINOMEscan
From the text: as §1

FES = molecular target: T11, FES (Homo sapiens, UniProt P07332); test: KINOMEscan 1 μM, FES; assay type: binding; conditions: 1000 nM; Entrez FES; read-out: Percent Control
T11 construct: purchased Eurofins DiscoverX KINOMEscan
From the text: as §1

CDC2L2 = molecular target: T12, CDC2L2 (Homo sapiens, UniProt Q9UQ88); test: KINOMEscan 1 μM, CDC2L2; assay type: binding; conditions: 1000 nM; Entrez CDC2L2; read-out: Percent Control
T12 construct: purchased Eurofins DiscoverX KINOMEscan
From the text: as §1

PCTK2 = molecular target: T13, PCTK2 (Homo sapiens, UniProt Q00537); test: DiscoverX KINOMEscan binding assay at 1 μM, PCTK2; conditions: PCTK2 (CDK17); Compound Concentration 1000 nM; read-out: Percent Control
T13 construct: purchased Eurofins DiscoverX KINOMEscan
T13 sequence (Q00537 whole entry): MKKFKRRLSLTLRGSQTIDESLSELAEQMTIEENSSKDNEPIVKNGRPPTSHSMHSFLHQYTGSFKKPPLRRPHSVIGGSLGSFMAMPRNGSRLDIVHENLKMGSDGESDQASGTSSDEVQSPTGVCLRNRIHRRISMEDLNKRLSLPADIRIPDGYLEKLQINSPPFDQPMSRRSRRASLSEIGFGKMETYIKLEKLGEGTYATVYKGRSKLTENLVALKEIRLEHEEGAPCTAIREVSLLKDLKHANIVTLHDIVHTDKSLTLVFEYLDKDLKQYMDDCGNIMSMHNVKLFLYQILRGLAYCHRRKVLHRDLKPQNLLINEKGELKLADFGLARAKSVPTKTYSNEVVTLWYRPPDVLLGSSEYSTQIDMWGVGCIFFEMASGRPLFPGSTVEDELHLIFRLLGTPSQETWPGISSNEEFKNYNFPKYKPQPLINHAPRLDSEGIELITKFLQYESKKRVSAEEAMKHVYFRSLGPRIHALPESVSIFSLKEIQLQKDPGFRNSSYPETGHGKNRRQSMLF
From the text: as §1

PFPK5(P.falciparum) = molecular target: T14, PFPK5(P.falciparum) (Plasmodium falciparum, UniProt P61075); test: DiscoverX KINOMEscan binding assay at 1 μM, PFPK5(P.falciparum); conditions: PFPK5(P.falciparum) (MAL13P1.279); Compound Concentration 1000 nM; read-out: Percent Control
T14 construct: purchased Eurofins DiscoverX KINOMEscan
T14 sequence (P61075 whole entry): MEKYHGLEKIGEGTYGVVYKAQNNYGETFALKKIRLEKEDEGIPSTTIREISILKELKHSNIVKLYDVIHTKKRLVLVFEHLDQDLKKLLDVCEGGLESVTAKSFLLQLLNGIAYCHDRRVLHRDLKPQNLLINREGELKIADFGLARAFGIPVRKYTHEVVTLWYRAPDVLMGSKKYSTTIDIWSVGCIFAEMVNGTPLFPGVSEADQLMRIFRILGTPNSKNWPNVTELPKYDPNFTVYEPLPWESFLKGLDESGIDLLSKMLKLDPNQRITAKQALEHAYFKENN
From the text: as §1

PRKD3 = molecular target: T15, PRKD3 (Homo sapiens, UniProt O94806); test: KINOMEscan 1 μM, PRKD3; assay type: binding; conditions: 1000 nM; Entrez PRKD3; read-out: Percent Control
T15 construct: purchased Eurofins DiscoverX KINOMEscan
From the text: as §1

PRKCH = molecular target: T16, PRKCH (Homo sapiens, UniProt P24723); test: DiscoverX KINOMEscan binding assay at 1 μM, PRKCH; conditions: Compound Concentration 1000 nM, read-out: Percent Control
T16 construct: purchased Eurofins DiscoverX KINOMEscan
From the text: as §1

TNK2 = molecular target: T17, TNK2 (Homo sapiens, UniProt Q07912); test: KINOMEscan 1 μM, TNK2; assay type: binding; conditions: 1000 nM; Entrez TNK2; read-out: Percent Control
T17 construct: purchased Eurofins DiscoverX KINOMEscan
From the text: as §1

CHEK1 = molecular target: T18, CHEK1 (Homo sapiens, UniProt O14757); test: KINOMEscan 1 μM, CHEK1; assay type: binding; conditions: 1000 nM; Entrez CHEK1; read-out: Percent Control
T18 construct: purchased Eurofins DiscoverX KINOMEscan
T18 sequence (O14757 whole entry): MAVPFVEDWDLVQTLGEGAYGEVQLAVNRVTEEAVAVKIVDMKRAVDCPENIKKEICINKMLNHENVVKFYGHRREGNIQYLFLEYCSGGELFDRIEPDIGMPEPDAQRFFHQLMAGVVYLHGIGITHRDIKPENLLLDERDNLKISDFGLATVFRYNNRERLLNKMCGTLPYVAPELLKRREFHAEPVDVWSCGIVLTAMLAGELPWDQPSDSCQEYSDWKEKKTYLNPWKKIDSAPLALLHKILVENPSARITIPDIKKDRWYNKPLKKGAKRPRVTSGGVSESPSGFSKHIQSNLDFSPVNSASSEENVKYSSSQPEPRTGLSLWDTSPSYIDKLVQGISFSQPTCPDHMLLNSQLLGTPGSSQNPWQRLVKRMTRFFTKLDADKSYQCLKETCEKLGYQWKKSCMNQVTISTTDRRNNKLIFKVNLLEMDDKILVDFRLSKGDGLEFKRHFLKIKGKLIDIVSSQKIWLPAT
From the text: as §1

p38-beta = molecular target: T19, p38-beta (Homo sapiens, UniProt Q15759); test: KINOMEscan binding assay at 1 μM, p38-beta; conditions: Compound Concentration 1000 nM; read-out: Percent Control
T19 construct: purchased Eurofins DiscoverX KINOMEscan
From the text: (§2) Supplement cells-12-00287-s001.zip/File S2. KinomeScan data for the CAMKK2 probe and negative control.xlsx, sheet "SGC-CAMKK2-1N" | column: Percent Control

MAPKAPK2 = molecular target: T20, MAPKAPK2 (Homo sapiens, UniProt P49137); test: KINOMEscan binding assay at 1 μM, MAPKAPK2; conditions: Compound Concentration 1000 nM; read-out: Percent Control
T20 construct: purchased Eurofins DiscoverX KINOMEscan
T20 sequence (P49137 whole entry): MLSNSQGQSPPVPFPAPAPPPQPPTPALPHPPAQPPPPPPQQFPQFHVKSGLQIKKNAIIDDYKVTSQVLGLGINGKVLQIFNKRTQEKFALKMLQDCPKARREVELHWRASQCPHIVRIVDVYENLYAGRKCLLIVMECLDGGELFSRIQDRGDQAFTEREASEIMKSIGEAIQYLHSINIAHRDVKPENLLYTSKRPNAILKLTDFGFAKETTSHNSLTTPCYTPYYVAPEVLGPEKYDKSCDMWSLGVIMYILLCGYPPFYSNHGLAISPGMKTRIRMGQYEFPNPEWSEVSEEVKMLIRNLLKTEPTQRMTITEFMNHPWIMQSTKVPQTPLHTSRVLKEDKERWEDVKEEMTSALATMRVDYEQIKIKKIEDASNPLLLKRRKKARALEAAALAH
From the text: as §2

CLK3 = molecular target: T21, CLK3 (Homo sapiens, UniProt P49761); test: KINOMEscan at 1 μM, CLK3; assay type: binding; conditions: 1000 nM, read-out: Percent Control
T21 construct: purchased Eurofins DiscoverX KINOMEscan
From the text: as §2

RIPK5 = molecular target: T22, RIPK5 (Homo sapiens, UniProt Q6XUX3); test: KINOMEscan at 1 μM, RIPK5; assay type: binding; conditions: 1000 nM, read-out: Percent Control
T22 construct: purchased Eurofins DiscoverX KINOMEscan
From the text: as §2

LTK = molecular target: T23, LTK (Homo sapiens, UniProt P29376); test: KINOMEscan binding assay at 1 μM, LTK; conditions: Compound Concentration 1000 nM; read-out: Percent Control
T23 construct: purchased Eurofins DiscoverX KINOMEscan
From the text: as §2

PRKX = molecular target: T24, PRKX (Homo sapiens, UniProt P51817); test: KINOMEscan at 1 μM, PRKX; assay type: binding; conditions: 1000 nM, read-out: Percent Control
T24 construct: purchased Eurofins DiscoverX KINOMEscan
From the text: as §2

PDGFRA = molecular target: T25, PDGFRA (Homo sapiens, UniProt P16234); test: KINOMEscan at 1 μM, PDGFRA; assay type: binding; conditions: 1000 nM, read-out: Percent Control
T25 construct: purchased Eurofins DiscoverX KINOMEscan
From the text: as §2

KIT(V559D) = molecular target: T26, KIT(V559D) (Homo sapiens, UniProt P10721, V559D); test: KINOMEscan at 1 μM, KIT(V559D); assay type: binding; conditions: 1000 nM, read-out: Percent Control
T26 construct: purchased Eurofins DiscoverX KINOMEscan
T26 sequence (P10721 26-976 V559D): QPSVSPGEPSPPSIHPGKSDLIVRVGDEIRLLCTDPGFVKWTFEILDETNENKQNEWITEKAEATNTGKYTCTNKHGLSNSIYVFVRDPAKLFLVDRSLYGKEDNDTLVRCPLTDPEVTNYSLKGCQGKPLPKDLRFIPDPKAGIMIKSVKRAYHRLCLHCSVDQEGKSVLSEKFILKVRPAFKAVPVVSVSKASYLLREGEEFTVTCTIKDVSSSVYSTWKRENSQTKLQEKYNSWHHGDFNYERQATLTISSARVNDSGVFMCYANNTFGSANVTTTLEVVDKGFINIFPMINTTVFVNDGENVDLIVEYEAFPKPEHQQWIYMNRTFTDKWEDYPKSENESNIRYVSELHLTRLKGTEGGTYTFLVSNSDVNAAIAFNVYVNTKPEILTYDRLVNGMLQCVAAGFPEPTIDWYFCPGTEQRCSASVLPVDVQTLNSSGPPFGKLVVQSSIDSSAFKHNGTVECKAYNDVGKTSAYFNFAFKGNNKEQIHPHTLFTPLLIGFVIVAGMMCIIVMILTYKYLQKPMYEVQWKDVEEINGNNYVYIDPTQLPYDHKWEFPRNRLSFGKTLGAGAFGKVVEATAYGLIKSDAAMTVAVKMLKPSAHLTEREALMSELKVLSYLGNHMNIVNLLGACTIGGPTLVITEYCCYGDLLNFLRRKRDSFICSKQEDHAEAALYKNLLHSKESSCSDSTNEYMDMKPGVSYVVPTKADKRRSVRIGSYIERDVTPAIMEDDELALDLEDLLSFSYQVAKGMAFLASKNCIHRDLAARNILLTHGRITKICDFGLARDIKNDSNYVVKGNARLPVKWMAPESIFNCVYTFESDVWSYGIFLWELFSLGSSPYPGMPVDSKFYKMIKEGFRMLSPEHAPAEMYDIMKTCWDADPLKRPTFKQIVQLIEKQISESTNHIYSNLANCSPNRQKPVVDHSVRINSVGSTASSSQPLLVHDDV
From the text: as §2

CAMK1D = molecular target: T27, CAMK1D (Homo sapiens, UniProt Q8IU85); test: KINOMEscan at 1 μM, CAMK1D; assay type: binding; conditions: 1000 nM, read-out: Percent Control
T27 construct: purchased Eurofins DiscoverX KINOMEscan
From the text: as §2

AKT3 [3] = molecular target: T4, AKT3; test: KINOMEscan at 1 μM, AKT3; assay type: binding; conditions: 1000 nM, read-out: Percent Control
From the text: as §2

SGK3 = molecular target: T28, SGK3 (Homo sapiens, UniProt Q96BR1); test: KINOMEscan binding assay at 1 μM, SGK3; conditions: Compound Concentration 1000 nM; read-out: Percent Control
T28 construct: purchased Eurofins DiscoverX KINOMEscan
T28 sequence (Q96BR1 whole entry): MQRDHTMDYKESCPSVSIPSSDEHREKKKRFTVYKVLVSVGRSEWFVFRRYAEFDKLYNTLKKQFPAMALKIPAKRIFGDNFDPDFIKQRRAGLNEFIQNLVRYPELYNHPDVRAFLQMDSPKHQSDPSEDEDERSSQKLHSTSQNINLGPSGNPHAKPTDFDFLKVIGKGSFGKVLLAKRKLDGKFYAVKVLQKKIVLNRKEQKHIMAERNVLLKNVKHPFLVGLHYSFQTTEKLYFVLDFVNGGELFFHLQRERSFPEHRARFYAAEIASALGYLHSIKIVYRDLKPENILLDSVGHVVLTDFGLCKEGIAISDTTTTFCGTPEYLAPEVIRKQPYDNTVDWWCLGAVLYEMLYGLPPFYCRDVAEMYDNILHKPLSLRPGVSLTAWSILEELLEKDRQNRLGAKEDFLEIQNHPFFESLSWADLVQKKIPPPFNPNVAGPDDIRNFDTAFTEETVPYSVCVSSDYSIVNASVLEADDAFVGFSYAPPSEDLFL
From the text: as §2

TSSK3 = molecular target: T29, TSSK3 (Homo sapiens, UniProt Q96PN8); test: KINOMEscan at 1 μM, TSSK3; assay type: binding; conditions: 1000 nM, read-out: Percent Control
T29 construct: purchased Eurofins DiscoverX KINOMEscan
From the text: as §2

RET(V804M) = molecular target: T30, RET(V804M) (Homo sapiens, UniProt P07949, V804M); test: KINOMEscan binding assay at 1 μM, RET(V804M); conditions: Compound Concentration 1000 nM; read-out: Percent Control
T30 construct: purchased Eurofins DiscoverX KINOMEscan
From the text: as §2

PRKCD = molecular target: T31, PRKCD (Homo sapiens, UniProt Q05655); test: KINOMEscan binding assay at 1 μM, PRKCD; conditions: Compound Concentration 1000 nM; read-out: Percent Control
T31 construct: purchased Eurofins DiscoverX KINOMEscan
From the text: as §2

PIP5K1A = molecular target: T32, PIP5K1A (Homo sapiens, UniProt Q99755); test: KINOMEscan at 1 μM, PIP5K1A; assay type: binding; conditions: 1000 nM, read-out: Percent Control
T32 construct: purchased Eurofins DiscoverX KINOMEscan
From the text: as §2

Q: Which remaining binding at 1 µM (EPHA8) does the source give for `Cc1cccc(-c2cnc3occ(-c4ccc(C(=O)O)c(C5CCCC5)c4)c3c2)c1` [SGC-CAMKK2-1 (YL-36)] here?
A: 95%

Q: What about the remaining binding at 1 µM (GSK3B) of the same compound?
A: 100%

Q: What about the remaining binding at 1 µM (EPHA7) of the same compound?
A: 100%

Q: What about the remaining binding at 1 µM (AKT3 [1]) of the same compound?
A: 100%

Q: What about the remaining binding at 1 µM [2] of the same compound?
A: 98%

Q: What about the remaining binding at 1 µM (AURKB) of the same compound?
A: 100%

Q: And the remaining binding at 1 µM (MAPKAPK5)?
A: 100%

Q: And the remaining binding at 1 µM (TTK)?
A: 100%

Q: What about the remaining binding at 1 µM (BRAF) of the same compound?
A: 100%

Q: And the remaining binding at 1 µM (PIK3CA(C420R))?
A: 100%

Q: And the remaining binding at 1 µM (FES)?
A: 88%

Q: What about the remaining binding at 1 µM (CDC2L2) of the same compound?
A: 84%

Q: What about the remaining binding at 1 µM (PCTK2) of the same compound?
A: 100%

Q: What about the remaining binding at 1 µM (PFPK5(P.falciparum)) of the same compound?
A: 100%

Q: And the remaining binding at 1 µM (PRKD3)?
A: 77%

Q: What about the remaining binding at 1 µM (PRKCH) of the same compound?
A: 100%

Q: And the remaining binding at 1 µM (TNK2)?
A: 99%

Q: What about the remaining binding at 1 µM (CHEK1) of the same compound?
A: 93%

Q: Which remaining binding at 1 µM (p38-beta) does the source give for `O=C(O)c1ccc(-c2coc3ncc(-c4ccccc4)cc23)cc1Cl` [SGC-CAMKK2-1N (UNC-YL-83)] here?
A: 100%

Q: And the remaining binding at 1 µM (MAPKAPK2)?
A: 100%

Q: And the remaining binding at 1 µM (CLK3)?
A: 85%

Q: And the remaining binding at 1 µM (RIPK5)?
A: 78%

Q: And the remaining binding at 1 µM (LTK)?
A: 100%

Q: What about the remaining binding at 1 µM (PRKX) of the same compound?
A: 76%

Q: And the remaining binding at 1 µM (PDGFRA)?
A: 74%

Q: What about the remaining binding at 1 µM (KIT(V559D)) of the same compound?
A: 70%

Q: What about the remaining binding at 1 µM (CAMK1D) of the same compound?
A: 61%

Q: And the remaining binding at 1 µM (AKT3 [3])?
A: 95%

Q: And the remaining binding at 1 µM (SGK3)?
A: 100%

Q: What about the remaining binding at 1 µM (TSSK3) of the same compound?
A: 65%

Q: What about the remaining binding at 1 µM (RET(V804M)) of the same compound?
A: 100%

Q: And the remaining binding at 1 µM (PRKCD)?
A: 100%

Q: What about the remaining binding at 1 µM (PIP5K1A) of the same compound?
A: 87%
